{"source": "patent US12552854B2", "about": "“Peptides that block presentation of antigenic islet peptides by HLA-DQ8 and methods for treating type-1 diabetes” (Icahn School of Medicine at Mount Sinai, priority 2019, dated 2026)", "key": {"[1]": {"assay": "Metabolic stability in mouse hepatocytes", "format": "in vitro ADME", "conditions": "1 μM", "description": "Cryopreserved mouse hepatocytes were thawed at 37° C. in water bath until the ice was almost melted (˜90 seconds). The suspensions from the each were immediately transferred to 50 mL centrifuge tubes containing pre-warmed thawing media (VitroGRO HT Medium, Thawing) at 37° C. The cell suspensions were centrifuged at 50 g for 5 minutes at 4° C. (SYS679). Supernatants were discarded and the pellets were re-suspended in pre-warmed 3 mL incubation media (from in vitroGRO HT Medium, Incubation) at 37° C. The percentages of viable cells in the suspension were determined by using the Trypan Blue stain method (20 μL of tryptan blue and 20 μL of cell suspension) DF=2. Cryo mouse hepatocyte (Bioreclamation, lot #CHV) viability was 72.62% (viable/dead=305/115), and the total cells were 4.57 million. 1.57 mL of incubation media was added to cell concentration to get 1 million cells/mL. 10 μl of 100 μM test compounds stock in ACN:H2O (v:v, 1:1) was added to 990 μl of hepatocyte suspension/incubation media in a 24-well plate. 10 μl of 20 μM Midazolam was added to 990 μl of hepatocyte suspension as a positive control in a 24-well plate. The cells were incubated in a 37° C. incubator (SYS431) for 4 hours. 50 μl of aliquots (n=2) were added to 800 ul of MeOH:water (v:v, 5:95) at 0, 15, 30, 60, 120, 180 and 240 minutes. For all samples, 20 μL of internal standard (200 ng/mL tolbutamide) was added to the solution in water. The samples were vortexed vigorously for 5 minutes and then loaded onto a pre-conditioned Oasis HLB 96-well SPE plate (10 mg, […]). The Oasis HLB 96-well SPE plate was conditioned with 1 mL of methanol and then rinsed with 1 mL of water before the samples were loaded. Once loaded onto the Oasis HLB 96-well SPE plate, residual solution was removed by vacuum. The samples were eluted into a clean 96-well plate with 800 μL of 0.1% formic acid in 70% acetonitrile. The samples were evaporated to dryness under nitrogen at ambient temperature using a TurboVap 96 Concentration Workstation (Caliper Life Sciences). […]"}, "[2]": {"test_system": "PBMCs isolated from DQ8 positive T1D patients", "assay": "Cytokine production in PBMCs from DQ8 positive recent-onset T1D patients", "format": "cell-based, human", "conditions": "stimulated with InsB:9-23 for 48 h; all peptides at 50 μg/ml", "from_the_text": "(§1) Subjects with a diagnosis of T1D within the previous 2 years were recruited from the Pediatric Endocrine clinic at Children Hospital at Montefiore and from the adult Endocrine clinics at Montefiore and Mount Sinai Hospitals (New York). Peripheral blood mononuclear cells (PBMCs) were isolated from heparinized blood using Ficoll-Paque (GE Healthcare); freshly isolated PBMCs were used for T-cell activation studies and for genotyping. DNA purified from the blood of the patients was typed for HLA-DQ as previously described (32). PBMCs isolated from DQ8 positive patients were seeded in 96 well plates with 200 μl medium (RPMI, 10% FBS). […] The stimulated PBMCs were assessed for cytokine production and T-cell proliferation as described above for mouse splenocytes. DQ8 typed patients with long standing T1D (>10 years) were used as negative controls in the experiments (no T-cell responses to islet peptides)."}, "[3]": {"test_system": "splenocytes isolated from SJL-DQ8 mice", "assay": "Ex vivo CFSE T-cell proliferation, splenocytes of InsB:9-23-immunized SJL-DQ8 mice", "format": "cell-based, mouse", "conditions": "all peptides at 50 μg/ml; 5 days", "from_the_text": "ID NO: 23) and reverse primer [NT]"}, "[4]": {"molecular_target": "T1, recombinant HLA-DQ8 protein (Homo sapiens, UniProt P01909+P01920)", "T1 construct": "contained the extracellular portion of the DQA1*0301 α chain fused to the coiled-coil region of the basic leucine zipper domain of Fos; contained the extracellular portion of the DQB1*0302 β chain fused to the coiled-coil region of the basic leucine zipper domain of JunB; Fos leucine zipper (coiled-coil region) (C); TEV protease site (internal); His6; JunB leucine zipper (coiled-coil region) (C); FLAG; host or cells: baculovirus system", "T1 sequence (P01909 with tags, fused parts or gaps with the stated changes)": "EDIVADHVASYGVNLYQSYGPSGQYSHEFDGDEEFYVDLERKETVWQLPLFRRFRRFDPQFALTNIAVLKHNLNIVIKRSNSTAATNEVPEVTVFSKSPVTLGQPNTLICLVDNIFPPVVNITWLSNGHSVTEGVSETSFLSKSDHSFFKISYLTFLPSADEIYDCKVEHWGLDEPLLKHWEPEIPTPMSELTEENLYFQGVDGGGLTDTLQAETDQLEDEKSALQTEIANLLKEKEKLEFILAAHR", "T1 sequence (P01920 with tags, fused parts or gaps A45G/Y58L/E77G/D89A/H199R/T217I)": "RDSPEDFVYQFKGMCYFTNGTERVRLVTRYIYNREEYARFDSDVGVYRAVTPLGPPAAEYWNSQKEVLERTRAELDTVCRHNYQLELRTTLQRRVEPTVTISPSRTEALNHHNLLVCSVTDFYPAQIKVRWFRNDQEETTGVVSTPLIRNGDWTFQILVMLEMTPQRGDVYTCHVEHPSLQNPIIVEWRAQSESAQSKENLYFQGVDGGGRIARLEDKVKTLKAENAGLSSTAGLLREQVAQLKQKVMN", "assay": "DELFIA immunoassay: inhibition of biotinylated InsB:9-23 binding to recombinant HLA-DQ8", "from_the_text": "HLA-DQ8 protein was produced using the baculovirus system. Two constructs were designed for both the α and the β chains of HLA-DQ8. The β chain construct contained the extracellular portion of the DQB1*0302 β chain fused to the coiled-coil region of the basic leucine zipper domain of JunB, and the α chain construct contained the extracellular portion of the DQA1*0301 α chain fused to the coiled-coil region of the basic leucine zipper domain of Fos. […] A tobacco etch virus protease cutting site was introduced in each chain to allow removal of the dimerization motif. The JunB and Fos dimerization motifs were added in order to allow the α and β chains to dimerize and form the final HLA-DQ8 protein (FIG. 12A). These constructs were used to produce the HLA-DQ8 protein in a baculovirus system using the Life Technologies Baculovirus protein production custom services (Carlsbad, CA).\nD-peptides were produced by Fisher Scientific (Hanover Park, IL) in dry form and dissolved in PBS. All D-peptides were screened at a concentration of 10 μM for their ability to bind to the HLA-DQ8 pocket and block it from binding the InsB:9-23 peptide using a unique immunoassay (23). […] After washing 4 times, DELFIA Europium-labeled streptavidin (PerkinElmer) diluted in DELFIA assay buffer (PerkinElmer) was added for 30 minutes and shaken at slow speed at room temperature. Since the InsB:9-23 peptide was biotinylated the complex HLA-DQ8-InsB:9-23 peptide could be detected using the Europium-labeled streptavidin. After washing for 6 times, DELFIA Enhancement Solution was added for 1 hour or until the optimal signal was reached. Time-resolved fluorescence was measured using the BMG reader (BMG Labtech, Cary, NC). The experiment was performed in triplicate. As a negative control biotinylated InsB:9-23 peptide that was not pre-incubated with HLA-DQ8 was added to the nickel coated plates.\nImmunoassay was performed as described above."}, "[5]": {"assay": "FIG. 23A", "description": "Table printed on a drawing sheet, FIG. 23A\nData from a dose of 10 mg/kg and a single discrete subcutaneous dose of 10 mg/kg are shown. FIG. 23B is a graph showing mean RI-CT whole blood concentrations in male CD-1 mice following a single IV bolus dose of 10 mg/kg and a single SC dose of 10 mg/kg. […] This is a long half-life that will make it feasible to use RI-CT in a clinical setting with a once daily dose.\nFirst reader's note: SC arm; the last four rows (n, Mean, SD, CV%) are summary statistics over the animals, and the meaning of ** is not printed on the sheet."}, "[6]": {"test_system": "PBMCs isolated from DQ8 positive T1D patients", "assay": "CFSE T-cell proliferation in PBMCs from DQ8 positive recent-onset T1D patients", "format": "cell-based, human", "conditions": "all peptides at 50 μg/ml", "from_the_text": "as §1"}}, "note": "Entries after “also recorded” stand apart in the source; their conditions may differ."}
{"smiles": "CC(C)C[C@@H](NC(=O)[C@@H](Cc1ccc(O)cc1)NC(=O)[C@@H](CC(C)C)NC(=O)[C@H](NC(=O)[C@@H](CS)NC(=O)CNC(=O)[C@@H](CCC(=O)O)NC(=O)[C@@H](CCCNC(=N)N)NC(=O)CNC(=O)CN)C(C)C)C(=O)N[C@H](C)C(=O)N[C@H](CCC(=O)O)C(=O)N[C@@H](C(=O)NCC(=O)NCC(=O)O)C(C)C", "note": "[RI-CT]", "values": [{"measurement": "consumption of the peptide after incubation with murine hepatocytes", "setting": "[1]; 4 hours", "result": "little/no consumption"}, {"measurement": "metabolic stability (comparison)", "setting": "[1]; mouse hepatocytes", "result": "higher metabolic stability compared to RI-EXT"}, {"measurement": "IFN-γ production, PBMCs of DQ8 positive T1D patients", "setting": "[2]", "result": "significantly suppressed; also recorded: significantly decreased"}, {"measurement": "IL-2 production, PBMCs of DQ8 positive T1D patients", "setting": "[2]", "result": "significantly suppressed; also recorded: significantly decreased"}, {"measurement": "T-cell proliferation induced by InsB:9-23 (CFSE assay), SJL-DQ8 splenocytes", "setting": "[3]", "result": "significantly suppressed; also recorded: significantly decreased"}, {"measurement": "inhibition of InsB:9-23 binding to HLA-DQ8 (in words)", "setting": "[4]; D-peptides screened at 10 μM, recombinant HLA-DQ8", "result": "significant inhibition"}, {"measurement": "dose dependence of the inhibition of InsB:9-23 binding to HLADQ8", "setting": "[4]; serially diluted to 0.5 μM, FIG. 3D", "result": "dose-dependent"}, {"measurement": "AUClast", "setting": "[5]", "result": 3830, "unit": "ng·h/mL"}, {"measurement": "MRTinf", "setting": "[5]", "result": 4.50, "unit": "h"}, {"measurement": "T-cell proliferation induced by InsB:9-23 (CFSE assay), PBMCs of DQ8 positive T1D patients", "setting": "[6]", "result": "significantly suppressed; also recorded: significantly decreased"}]}
